Laboratory results reported in paper PMC3402541, “Guanidylation and Tail Effects in Cationic Antimicrobial Lipopeptoids” (PLoS ONE, 2012).
In brackets after ≈: the same amount, converted by molar mass. Where a SMILES comes first, the peptide text is derived from it. [ ]: non-standard residue; d: D form. The star is where a group is joined. Palmitoyl = CCCCCCCCCCCCCCCC(=O)*; Nlys = NCCCCNCC(=O)O

Legend:
E. faecium ATCC 27270 = format: cell-based; conditions: ATCC 27270, 24 h
Summary of the method: (§1)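 Testing follows CLSI macrobroth dilution with an inoculum of approximately 5 × 10^5 CFU/mL in cation-adjusted Mueller-Hinton broth. After 24 hr at 37°C the MIC was recorded, without replicate runs.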

MSSE 81388 CANWARD 2008 = format: cell-based, methicillin-susceptible S. epidermidis; conditions: 24 h
Summary of the method: as §1

E.coli CAN-ICU 63074 = format: cell-based, Escherichia coli; conditions: CAN-ICU 63074, 24 h
Summary of the method: as §1

[1] = system: all three strains of E. coli; format: cell-based, Escherichia coli; conditions: 24 h
Summary of the method: (§2)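 Read-out is the MIC after 24 hr incubation at 37°C in ambient air, determined by CLSI macrobroth dilution in cation-adjusted Mueller-Hinton broth with an inoculum near 5 × 10^5 CFU/mL; tested once.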

E.coli CAN-ICU 61714 = format: cell-based, Escherichia coli; conditions: CAN-ICU 61714, 24 h
Summary of the method: as §1

E.coli ATCC 25922 = format: cell-based, Escherichia coli; conditions: ATCC 25922, 24 h
Summary of the method: as §1

S.aureus ATCC 29213 = format: cell-based, Staphylococcus aureus; conditions: ATCC 29213, 24 h
Summary of the method: as §1

E. faecalis ATCC 29212 = format: cell-based, Enterococcus faecalis; conditions: ATCC 29212, 24 h
Summary of the method: as §1

ovine erythrocytes = assay: Haemolytic assay; format: cell-based, sheep; conditions: ovine erythrocytes in Tris buffered saline, 30 minutes, absorbance of supernatant at 540 nm
Summary of the method: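 Washed sheep erythrocytes in Tris-buffered saline exposed to compound (50 μg/mL–1 mg/mL; final 4.08 x 10^8 cells/mL) for 30 min. After centrifugation, supernatant absorbance at 540 nm gave % haemolysis; 0.5% ammonium chloride as positive control.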

MRSA ATCC 33592 = format: cell-based, methicillin-resistant S. aureus; conditions: ATCC 33592, 24 h
Summary of the method: as §1

[2] = system: A. baumannii CAN-ICU 63169; format: cell-based, Acinetobacter baumannii; conditions: CAN-ICU 63169, 24 h
Summary of the method: as §1

P.aeruginosa ATCC 27853 = format: cell-based, Pseudomonas aeruginosa; conditions: ATCC 27853, 24 h
Summary of the method: as §1

[3] = system: P.aeruginosa CAN-ICU 62308; format: cell-based, Pseudomonas aeruginosa; conditions: CAN-ICU 62308, 24 h
Summary of the method: as §1

S.pneumoniae ATCC 49619 = format: cell-based, Streptococcus pneumoniae; conditions: ATCC 49619, 24 h
Summary of the method: as §1

K.pneumoniae ATCC 13883 = format: cell-based, Klebsiella pneumoniae; conditions: ATCC 13883, 24 h
Summary of the method: as §1

[4] = system: S. maltophilia CAN-ICU 62584; format: cell-based, Stenotrophomonas maltophilia; conditions: CAN-ICU 62584, 24 h
Summary of the method: as §1

MRSE CAN-ICU 61589 = format: cell-based, methicillin-resistant S. epidermidis; conditions: CAN-ICU 61589, 24 h
Summary of the method: as §1

S. epidermidis = format: cell-based; conditions: 24 h
Summary of the method: as §2

Row | MIC E. faecium (E. faecium ATCC 27270) | MIC E. faecium in the presence of 4% bovine serum albumin (E. faecium ATCC 27270) | MIC MSSE (MSSE 81388 CANWARD 2008) | MIC MSSE in the presence of 4% bovine serum albumin (MSSE 81388 CANWARD 2008) | MIC E.coli (E.coli CAN-ICU 63074) | MIC E.coli in the presence of 4% bovine serum albumin (E.coli CAN-ICU 63074) | MIC E.coli (E.coli CAN-ICU 61714) | MIC E.coli in the presence of 4% bovine serum albumin (E.coli CAN-ICU 61714) | MIC E.coli (E.coli ATCC 25922) | MIC E.coli in the presence of 4% bovine serum albumin (E.coli ATCC 25922) | MIC S.aureus (S.aureus ATCC 29213) | MIC S.aureus in the presence of 4% bovine serum albumin (S.aureus ATCC 29213) | MIC E. faecalis (E. faecalis ATCC 29212) | MIC E. faecalis in the presence of 4% bovine serum albumin (E. faecalis ATCC 29212) | MIC MRSA (MRSA ATCC 33592) | MIC MRSA in the presence of 4% bovine serum albumin (MRSA ATCC 33592) | MIC A. baumannii [2] | MIC A. baumannii in the presence of 4% bovine serum albumin [2] | MIC P.aeruginosa (P.aeruginosa ATCC 27853) | Compound | Percent haemolysis at 100µg/mL of compound (ovine erythrocytes) | also measured
1 | 16 µg/mL (≈ 24.5 µM) | 512 µg/mL | 8 µg/mL (≈ 12.3 µM) | 512 µg/mL | 16 µg/mL (≈ 24.5 µM) | 512 µg/mL | 16 µg/mL (≈ 24.5 µM) | 512 µg/mL | 16 µg/mL (≈ 24.5 µM) | 512 µg/mL | 8 µg/mL (≈ 12.3 µM) | 512 µg/mL | 16 µg/mL (≈ 24.5 µM) | 512 µg/mL | 8 µg/mL (≈ 12.3 µM) | 512 µg/mL | 128 µg/mL (≈ 196 µM) | >512 µg/mL | 64 µg/mL (≈ 98 µM) | CCCCCCCCCCCCCCCC(=O)N(CCCCNC(=N)N)CC(=O)NCC(=O)N(CCCCNC(=N)N)CC(N)=O [C16-NhargGNharg] | 61.06% | MIC against all three strains of E. coli [1]: 16 µg/mL; MIC P.aeruginosa in the presence of 4% bovine serum albumin (P.aeruginosa ATCC 27853): >512 µg/mL; MIC P.aeruginosa [3]: 64 µg/mL (≈ 98 µM); MIC P.aeruginosa in the presence of 4% bovine serum albumin [3]: >512 µg/mL; MIC S.pneumoniae (S.pneumoniae ATCC 49619): 128 µg/mL (≈ 196 µM); MIC S.pneumoniae in the presence of 4% bovine serum albumin (S.pneumoniae ATCC 49619): 512 µg/mL; MIC K.pneumoniae (K.pneumoniae ATCC 13883): 64 µg/mL (≈ 98 µM); MIC K.pneumoniae in the presence of 4% bovine serum albumin (K.pneumoniae ATCC 13883): 512 µg/mL; MIC S. maltophilia [4]: 64 µg/mL (≈ 98 µM); MIC S. maltophilia in the presence of 4% bovine serum albumin [4]: >512 µg/mL; MIC MRSE (MRSE CAN-ICU 61589): 16 µg/mL (≈ 24.5 µM); MIC MRSE in the presence of 4% bovine serum albumin (MRSE CAN-ICU 61589): 512 µg/mL
2 | 16 µg/mL (≈ 28.1 µM) | 512 µg/mL | 8 µg/mL (≈ 14.1 µM) | 512 µg/mL | 16 µg/mL (≈ 28.1 µM) | 512 µg/mL | 16 µg/mL (≈ 28.1 µM) | 512 µg/mL | 16 µg/mL (≈ 28.1 µM) | 512 µg/mL | 8 µg/mL (≈ 14.1 µM) | 512 µg/mL | 16 µg/mL (≈ 28.1 µM) | 512 µg/mL | 16 µg/mL (≈ 28.1 µM) | 512 µg/mL | 128 µg/mL (≈ 225 µM) | >512 µg/mL | 64 µg/mL (≈ 113 µM) | CCCCCCCCCCCCCCCC(=O)N(CCCCN)CC(=O)NCC(=O)N(CCCCN)CC(N)=O [C16-NlysGNlys] (Palmitoyl-[Nlys]-Gly-[Nlys]-NH2) | 56.03% | MIC against all three strains of E. coli [1]: 16 µg/mL; MIC P.aeruginosa in the presence of 4% bovine serum albumin (P.aeruginosa ATCC 27853): >512 µg/mL; MIC P.aeruginosa [3]: 128 µg/mL (≈ 225 µM); MIC P.aeruginosa in the presence of 4% bovine serum albumin [3]: >512 µg/mL; MIC S.pneumoniae (S.pneumoniae ATCC 49619): 128 µg/mL (≈ 225 µM); MIC S.pneumoniae in the presence of 4% bovine serum albumin (S.pneumoniae ATCC 49619): 512 µg/mL; MIC K.pneumoniae (K.pneumoniae ATCC 13883): 64 µg/mL (≈ 113 µM); MIC K.pneumoniae in the presence of 4% bovine serum albumin (K.pneumoniae ATCC 13883): >512 µg/mL; MIC S. maltophilia [4]: 128 µg/mL (≈ 225 µM); MIC S. maltophilia in the presence of 4% bovine serum albumin [4]: >512 µg/mL; MIC MRSE (MRSE CAN-ICU 61589): 16 µg/mL (≈ 28.1 µM); MIC MRSE in the presence of 4% bovine serum albumin (MRSE CAN-ICU 61589): 512 µg/mL
3 | 16 µg/mL (≈ 23 µM) | 256 µg/mL | 8 µg/mL (≈ 11.5 µM) | 128 µg/mL | 32 µg/mL (≈ 46 µM) | 256 µg/mL | 32 µg/mL (≈ 46 µM) | 256 µg/mL | 32 µg/mL (≈ 46 µM) | 256 µg/mL | 16 µg/mL (≈ 23 µM) | 128 µg/mL | 16 µg/mL (≈ 23 µM) | 256 µg/mL | 16 µg/mL (≈ 23 µM) | 256 µg/mL | 64 µg/mL (≈ 91.9 µM) | 512 µg/mL | 128 µg/mL (≈ 184 µM) | CCCCCCCCCCCCCCCCCCCC(=O)N(CCCCN)CC(=O)N(CCCCN)CC(=O)N(CCCCN)CC(N)=O [C20-NlysNlysNlys] | 68.29% | MIC against S. epidermidis with BSA (S. epidermidis): 128 µg/mL; MIC P.aeruginosa in the presence of 4% bovine serum albumin (P.aeruginosa ATCC 27853): 512 µg/mL; MIC P.aeruginosa [3]: 64 µg/mL (≈ 91.9 µM); MIC P.aeruginosa in the presence of 4% bovine serum albumin [3]: 512 µg/mL; MIC S.pneumoniae (S.pneumoniae ATCC 49619): 64 µg/mL (≈ 91.9 µM); MIC S.pneumoniae in the presence of 4% bovine serum albumin (S.pneumoniae ATCC 49619): 512 µg/mL; MIC K.pneumoniae (K.pneumoniae ATCC 13883): 64 µg/mL (≈ 91.9 µM); MIC K.pneumoniae in the presence of 4% bovine serum albumin (K.pneumoniae ATCC 13883): 256 µg/mL; MIC S. maltophilia [4]: 64 µg/mL (≈ 91.9 µM); MIC S. maltophilia in the presence of 4% bovine serum albumin [4]: 512 µg/mL; MIC MRSE (MRSE CAN-ICU 61589): 8 µg/mL (≈ 11.5 µM); MIC MRSE in the presence of 4% bovine serum albumin (MRSE CAN-ICU 61589): 128 µg/mL
